Literature values in patent US8188047B2, “Therapeutic and cosmetic compositions for treatment of skin” (priority 2009, dated 2012).

Settings: typically

stable up to (temperature): up to 400 °C
Compound: FC1(F)C(F)(F)C(F)(F)C2(F)C(F)(F)C(F)(F)C(F)(F)C(F)(F)C2(F)C1(F)F (stereo not shown) [perfluorodecalin]
